Results from patent publication US6673555B1, “Methods of using SCAP antagonists” (SmithKline Beecham Corporation, priority 1999, dated 2004).

Key:
[1] = test system: golden Syrian hamster previously fed with a cholesterol rich diet; assay: Lipoprotein cholesterol profile by gel filtration in cholesterol-fed hamsters (FIG. 7); format: in vivo; conditions: 5 mg/kg oral once a day for 3 days
Description: The in vivo activity of SCAP antagonist was determined in the golden Syrian hamster previously fed with a cholesterol rich diet. Male Syrian golden hamsters (Janvier, France) were kept on a 12 h light-dark cycle. Animals (7 weeks age, 150 g) were fed for 2 weeks with a high cholesterol diet containing 0.2% cholesterol plus 10% coconut oil. Animals (n=5 per group) were then treated orally with vehicle, (0.5% methylcellulose, 5% Tween 80) or Example 1 at 1, 5 or 20 mg/kg in the vehicle, once a day for 3 days.
4h after the last treatment, animals were anesthetized, blood was collected and serum was prepared by centrifugation. Total cholesterol was determined using a enzymatic assay kit (Biomerieux, France). Lipoproteins were separated by ultracentrifugation using a single KBr concentration (density 1.063). Cholesterol and triglycerides associated with the upper phase (corresponding to VLDL +LDL lipoproteins) and cholesterol associated with the lower phase (corresponding to the HDL fraction) were determined using the enzymatic assays kits. Apolipoprotein B100 associated with VLDL and LDL lipoprotein fraction were analysed by SDS-PAGE and Coomassie blue staining. Lipoproteins were also separated by high-performance gel filtration chromatography with on-line colorimetric determination of cholesterol. Lipoprotein separation was performed on a single superose 6HR column (Pharmacia) with an elution buffer consisting of 10 mM tris, 1 mM EDTA and 150 mM NaCl adjusted at pH 7.4. Cholesterol was measured on line using the RTU enzymatic assay (Biomerieux). The column was calibrated using human lipoproteins and the various peaks in cholesterol profiles are designated VLDL, LDL and HDL for simplicity.
Cholesterol-fed animals were treated for 3 days with Example 1 at 1 and 20 mg/kg. […] In another experiment, lipoproteins were separated by gel filtration and cholesterol content was quantified on-line. As shown in FIG. 7 Example 1 at […] strongly reduces atherogenic particles: 79% reduction of VLDL cholesterol and 60% reduction of LDL-cholesterol.

[2] = test system: human LDL-receptor promoter; assay: LDL-receptor promoter luciferase reporter assay in transfected HepG2 cells; format: cell-based
Text: The human LDL-receptor promoter named p-588 corresponding to nucleotide −588 to +91 relative to the major transcription site was cloned by PCR from human genomic DNA (Clonetech) using SEQ ID NO: 3 […] and SEQ ID NO: 4 […] primers. and inserted into pGL3-basic vector (Promega) at Hind-III and Nco-I sites. The sequencing was identical to published promoter (Genbank L29401). Shorter promoters were obtained by PCR sub-cloning using Kpn-I and Nar-I sites. The primer SEQ ID NO: 5 […] corresponding to luciferase coding sequence was used as reverse primer for all constructs. The following primers were used to produce respectively p-149, p-118, p-70, p-53 and p-31 promoters: SEQ ID NO: 6 […], SEQ ID NO: 7 […], SEQ ID NO: 8 […], SEQ ID NO: 9 […] and SEQ ID NO: 10 […]. A vector containing the 38 bp of the minimal promoter of adenovirus Major Late Promoter (Ham. J. et al., EMBO, 10: 2931-2940 (1991)) was produced using Bgl-II and Hind-III site in pGL3-basic. Four repeats of the SRE sequence present on the human LDL-receptor promoter were introduced in p-MLP vector using Bgl-II site, SEQ ID NO: 11 […] and complementary oligo. HepG2 cells seeded the previous day at 3 10^5 cells per well of 24 well plate were transfected with 1 μg of LDL-promoter containing vector together with p-RL-TK control vector (Promega) using Fugene 6 (Boehringer). HepG2 cells were incubated for 28 hours in the presence of SCAP antagonist and/or 25OH-cholesterol. Firefly luciferase and Renila activity were measured using Dual Luciferase Assay Kit (Promega) and Lumistar (BMG). The ratio of Firefly luciferase to Renila were used to calculate mean and S.D. of tetraplicates.
A vector containing the human LDL-receptor promoter coupled to Firefly luciferase reporter was made. A mixture of the LDL-receptor vector and control pRL-TK vector was used to transfect HepG2 cells. Cells were incubated with 25OH-cholesterol (0.2 or 1 μM) alone or in the presence (black bars) or absence (gray bars) of Example 1 (1 μM) for 28 hours before measurement of luciferase and renila activity. The ratio of luciferase activity versus renila activity was calculated and the mean and SD of triplicates were expressed as percent of control.
Shortening the LDL-receptor promoter in the same reporter vector modifies the relative luciferase activity (FIG. 3A).

Structure (SMILES): CCOc1cc(CC)ccc1C1CCN(CCCCNC(=O)c2ccc(NC(=O)c3ccc(Cl)cc3)cc2)CC1 [Example 1, 4-(4-Chloro-benzoylamino)-N-{4-[4-(2-ethoxy-4-ethyl-phenyl)-piperidin-1-yl]-butyl}-benzamide]
- increase of cholesterol contained in HDL particles [1]: 25%
- reduction of LDL-cholesterol [1]: 60%
- reduction of VLDL cholesterol [1]: 79%
- LDL-receptor promoter activity on co-treatment with 25OH-cholesterol ([2]; 1 μM with 25OH-cholesterol 0.2 or 1 μM, 28 hours, HepG2, FIG. 2): can at least partially antagonise the effects of 25OH-cholesterol on SCAP
- LDL-receptor promoter activity (luciferase/renila ratio) ([2]; 1 μM, 28 hours, HepG2, FIG. 2): acts as a transcriptional activators
- response of minimal adenovirus Major Late promoter vector (p-MLP) ([2]; 1 μM, HepG2, FIG. 3C): fails to respond
- response of p-MLP vector with 4 copies of SRE ([2]; 1 μM, HepG2, FIG. 3C): sufficient to confer the responsiveness
- reporter expression from shortened LDL-receptor promoter constructs ([2]; 1 μM, HepG2, p-149 to p-31 constructs, FIG. 3B left): promote expression only for vectors possessing the SRE sequence
